This is an account of results in patent US20190284192A1, “NITROGENOUS MACROCYCLIC COMPOUND, PREPARATION METHOD THEREFOR, PHARMACEUTICAL COMPOSITION AND APPLICATION THEREOF” (LUOXIN PHARMACEUTICAL (SHANGHAI) CO., LTD., priority 2016, published 2019).

Read-outs that look alike come from different tables or passages of the source.

One test has as its target T1, BRD4 (BD1) (Homo sapiens, UniProt O60885).
T1 construct: Each member comprises two tandem bromodomains (BD1 and BD2) for recognizing the acetylated lysine residues
The test can be described thus: BRD4 (BD1) bromodomain binding, HTRF. The conditions noted are these: 2 h incubation at r.t.

The target of a further test is T2, BRD4 (BD2) (Homo sapiens, UniProt O60885).
T2 construct: Each member comprises two tandem bromodomains (BD1 and BD2) for recognizing the acetylated lysine residues
The test can be described thus: BRD4 (BD2) bromodomain binding, HTRF. The conditions noted are these: 2 h incubation at r.t.

In a further test the test system is MV-4-11 cells. The test can be described thus: Inhibitory effect on MV-4-11 cells (CellTiter-Glo). In kind it is cell-based. The following applies: Homo sapiens, read-out: MV-4-11.
[1] abbreviates: MV4-11, 72 hours, CellTiter-Glo.

In the case of `C[C@@H]1N=C(c2ccc(F)cc2)c2cc(Cl)c(N)cc2-c2cn(C)c(=O)cc21` [Compound 4069, (S)-10-amino-9-chloro-7-(4-flurophenyl)-2,5-dimethyl-2,5-dihydro-3H-benzo[c]pyrido[3,4-e]azepin-3-ketone], the results for the IC50 at BRD4 (BD1), at BRD4 (BD2) and with MV-4-11 cells (setting [1]) were 4 nM, 2 nM and 35 nM, respectively.

For `C[C@@H]1N=C(c2ccc(F)cc2)c2cc(F)c(N)cc2-c2cn(C)c(=O)cc21` [Compound 4070, (S)-10-amino-9-fluoro-7-(4-flurophenyl)-2,5-dimethyl-2,5-dihydro-3H-benzo[c]pyrido[3,4-e]azepin-3-ketone], the IC50 is 3 nM on BRD4 (BD1); 2 nM at BRD4 (BD2); 16 nM in the test with MV-4-11 cells (MV4-11, 72 h).

`C[C@@H]1N=C(c2ccc(F)cc2)c2cc(F)c(NS(C)(=O)=O)cc2-c2cn(C)c(=O)cc21` [Compound 4074, (S)—N-(9-fluoro-7-(4-flurophenyl)-2,5-dimethyl-3-oxo-3,5-dihydro-2H-benzo[c]pyrido[3,4-e]azepin-10-yl) methylsulfamide]: the IC50 on BRD4 (BD1) is 1 nM; on BRD4 (BD2), 1 nM; in the test on MV-4-11 cells (setting [1]), 2 nM.

Turning to `CCS(=O)(=O)Cc1ccc2c(c1)-c1cn(C)c(=O)cc1[C@H](C)N=C2c1ccc(C#N)cc1` [Compound 4075], the IC50 on BRD4 (BD1) was determined as 4 nM; on BRD4 (BD2) it was 2 nM; with MV-4-11 cells (setting [1]) it was 10 nM.

As for `CCS(=O)(=O)Cc1ccc2c(c1)-c1cn(C)c(=O)cc1[C@H](CC(N)=O)N=C2c1ccc(F)cc1` [Compound 4076, (S)-2-(10-((ethylsulfonyl)methyl)-7-(4-flurophenyl)-2-methyl-3-oxo-3,5-dihydro-2H-benzo[c]pyrido[3,4-e]azepin-5-yl)acetamide], the IC50 turned out to be 2 nM on BRD4 (BD1), 1 nM on BRD4 (BD2) and 114 nM in the test on MV-4-11 cells (setting [1]).

On to `CCS(=O)(=O)Nc1cc2c(cc1Cl)C(c1ccc(F)cc1)=N[C@@H](C1CC1)c1cc(=O)n(C)cc1-2` [Compound 4077, (S)—N-(9-chloro-5-cyclopropyl-7-(4-flurophenyl)-2-methyl-3-oxo-3,5-dihydro-2H-benzo[c]pyrido[3,4-e]azepin-10-yl)ethylsulfonamide], for which the IC50 on BRD4 (BD1) was 1 nM; at BRD4 (BD2), 0.4 nM; in the test with MV-4-11 cells (setting [1]), 0.4 nM.

On to `C[C@@H]1N=C(c2ccc(F)cc2)c2cc(Cl)c(NS(C)(=O)=O)cc2-c2cn(C)c(=O)cc21` [Compound 4079, (S)—N-(9-chloro-7-(4-flurophenyl)-2,5-dimethyl-3-oxo-3,5-dihydro-2H-benzo[c]pyrido[3,4-e]azepin-10-yl)methylsulfamide], for which the IC50 amounted to 3 nM at BRD4 (BD1), 1 nM on BRD4 (BD2) and 1 nM in the test with MV-4-11 cells (setting [1]).

Turning to `C[C@@H]1N=C(c2ccc(F)cc2)c2cc(Cl)c(NS(=O)(=O)C3CC3)cc2-c2cn(C)c(=O)cc21` [Compound 4080, (S)—N-(9-chloro-7-(4-flurophenyl)-2,5-dimethyl-3-oxo-3,5-dihydro-2H-benzo[c]pyrido[3,4-e]azepin-10-yl)cyclopropylsulfamide], the IC50 at BRD4 (BD1) came out at 2 nM; at BRD4 (BD2) it was 1 nM; in the test on MV-4-11 cells (setting [1]), 3 nM.

With `CCS(=O)(=O)Cc1ccc2c(c1)-c1cn(C)c(=O)cc1C(COC)N=C2c1ccc(F)cc1` (stereo not drawn) [Compound 4082, 10-((ethylsulfonyl)methyl)-7-(4-flurophenyl)-5-(methoxylmethyl)-2-methyl-2,5-dihydro-3H-benzo[c]pyrido[3,4-e]azepin-3-ketone], the IC50 is 2 nM on BRD4 (BD1), 1 nM at BRD4 (BD2) and 11 nM with MV-4-11 cells (setting [1]).

In the case of `CCC(=O)Nc1cc2c(cc1F)C(c1ccc(F)cc1)=N[C@@H](C)c1cc(=O)n(C)cc1-2` [Compound 4083, (S)—N-(9-fluoro-7-(4-flurophenyl)-2,5-dimethyl-3-oxo-3,5-dihydro-2H-benzo[c]pyrido[3,4-e]azepin-10-yl)propanamide], the IC50 at BRD4 (BD1) was determined as 8 nM; on BRD4 (BD2), 4 nM; in the test with MV-4-11 cells (setting [1]) it was 31 nM.

Turning to `CCS(=O)(=O)Nc1cc2c(cc1F)C(c1ccc(F)cc1)=N[C@@H](C1CC1)c1cc(=O)n(C)cc1-2` [Compound 4084, (S)—N-(5-cyclopropyl-9-fluoro-7-(4-flurophenyl)-2-methyl-3-oxo-3,5-dihydro-2H-benzo[c]pyrido[3,4-e]azepin-10-yl)ethylsulfonamide], the IC50 is 2 nM at BRD4 (BD1), 1 nM on BRD4 (BD2) and 0.5 nM in the test on MV-4-11 cells (setting [1]).

Regarding `CCS(=O)(=O)Cc1cc2c(cc1F)C(c1ccc(F)cc1)=N[C@@H](C)c1cc(=O)n(C)cc1-2` [Compound 4085, (S)-10-((ethylsulfonyl)methyl)-9-fluoro-7-(4-flurophenyl)-2,5-dimethyl-2,5-dihydro-3H-benzo[c]pyrido[3,4-e]azepin-3-ketone], the IC50 was determined as 2 nM at BRD4 (BD1), 1 nM on BRD4 (BD2) and 4 nM with MV-4-11 cells (setting [1]).

For the compound `CCS(=O)(=O)Cc1cc2c(cc1Cl)C(c1ccc(F)cc1)=N[C@@H](C)c1cc(=O)n(C)cc1-2` [Compound 4086, (S)-9-chloro-10-((ethylsulfonyl)methyl)-7-(4-flurophenyl)-2,5-dimethyl-2,5-dihydro-3H-benzo[c]pyrido[3,4-e]azepin-3-ketone], the IC50 on BRD4 (BD1) was determined as 2 nM; on BRD4 (BD2), 1 nM; in the test on MV-4-11 cells (setting [1]) it was 3 nM.

In the case of `CCS(=O)(=O)Cc1ccc2c(c1)-c1cn(C)c(=O)cc1[C@H](C)N=C2c1ccc(F)cc1OC` [Compound 4087, (S)-10-((ethylsulfonyl)methyl)-7-(4-fluoro-2-methoxylphenyl)-2,5-dimethyl-2,5-dihydro-3H-benzo[c]pyrido[3,4-e]azepin-3-ketone], the IC50 amounted to 4 nM at BRD4 (BD1), 1 nM on BRD4 (BD2) and 26 nM in the test on MV-4-11 cells (setting [1]).

As for `CCS(=O)(=O)Cc1ccc2c(c1)-c1cn(C)c(=O)cc1[C@H](CCO)N=C2c1ccc(F)cc1` [Compound 4088, (S)-10-((ethylsulfonyl)methyl)-7-(4-flurophenyl)-5-(2-hydroxyethyl)-2-methyl-2,5-dihydro-3H-benzo[c]pyrido[3,4-e]azepin-3-ketone], the IC50 at BRD4 (BD1) was determined as 3 nM; on BRD4 (BD2) it was 1 nM; with MV-4-11 cells (setting [1]), 26 nM.

Turning to `CCS(=O)(=O)Cc1ccc2c(c1)-c1cn(C)c(=O)cc1CN=C2c1ccc(F)c(OC)c1` [Compound 4089, 10-((ethylsulfonyl)methyl)-7-(4-fluoro-3-methoxylphenyl)-2-methyl-2,5-dihydro-3H-benzo[c]pyrido[3,4-e]azepin-3-ketone], the IC50 on BRD4 (BD1) stood at 8 nM; on BRD4 (BD2), 4 nM; in the test with MV-4-11 cells (setting [1]), 108 nM.

For `CNS(=O)(=O)C(C)(C)c1ccc2c(c1)-c1cn(C)c(=O)cc1[C@H](C)N=C2c1ccc(F)cc1` [Compound 4090, (S)-2-(7-(4-flurophenyl)-2,5-dimethyl-3-oxo-3,5-dihydro-2H-benzo[c]pyrido[3,4-e]azepin-10-yl)-N-methylpropane-2-sulfamide], the figures for the IC50 at BRD4 (BD1), at BRD4 (BD2) and with MV-4-11 cells (setting [1]) were 1 nM, 1 nM and 3 nM, respectively.

Consider `CNS(=O)(=O)C(C)c1ccc2c(c1)-c1cn(C)c(=O)cc1[C@H](C)N=C2c1ccc(F)cc1` (stereo partly drawn) [Compound 4091, 1-((S)-7-(4-flurophenyl)-2,5-dimethyl-3-oxo-3,5-dihydro-2H-benzo[c]pyrido[3,4-e]azepin-10-yl)-N-methylethane-1-sulfamide], for which the IC50 at BRD4 (BD1) was determined as 1 nM; on BRD4 (BD2), 0.7 nM; in the test with MV-4-11 cells (setting [1]), 3 nM.
